Measured values reported in article PMC6364417, “Kinase inhibitor library screening identifies synergistic drug combinations effective in sensitive and resistant melanoma cells” (Journal of Experimental & Clinical Cancer Research : CR, 2019).

How the values were obtained:
Test in all cases: Kinase inhibitor library screening, PrestoBlue cell viability, 1 or 10 μM, 72 h
501Mel cells (parental) = conditions: 501Mel Parental, 72 h, in %
Summary of the method: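 Parental cells and Vemurafenib-resistant (XP) or Dabrafenib-resistant (GP) derivatives were treated with library kinase inhibitors at 1 and 10 μM for 72 h. Viability measured by PrestoBlue and expressed as % of untreated cells, at least in duplicate.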

[1] = tested on: 501Mel-GP cells (Dabrafenib-resistant); conditions: 501Mel GP, 72 h, in %
[2] = tested on: 501Mel-XP cells (Vemurafenib-resistant); conditions: 501Mel XP, 72 h, in %
A375 cells (parental) = conditions: A375 Parental, 72 h
[3] = tested on: A375-GP cells (Dabrafenib-resistant); conditions: A375 GP, 72 h
[4] = tested on: A375-XP cells (Vemurafenib-resistant); conditions: A375 XP, 72 h
IGR37 cells (parental) = conditions: IGR37 Parental, 72 h, in %
[5] = tested on: IGR37-GP cells (Dabrafenib-resistant); conditions: IGR37 GP, 72 h
[6] = tested on: IGR37-XP cells (Vemurafenib-resistant); conditions: IGR37 XP, 72 h

SMILES | Cell viability in kinase inhibitor library screening, 501Mel Parental, 10μΜ (501Mel cells (parental); 10μΜ) | Cell viability in kinase inhibitor library screening, 501Mel GP, 1μΜ [1] | Cell viability in kinase inhibitor library screening, 501Mel GP, 10μΜ ([1]; 10μΜ) | Cell viability in kinase inhibitor library screening, 501Mel XP, 1μΜ ([2]; 1μΜ) | Cell viability in kinase inhibitor library screening, 501Mel XP, 10μΜ ([2]; 10μΜ) | Cell viability in kinase inhibitor library screening, A375 Parental, 10μΜ (A375 cells (parental); 10μΜ) | Cell viability in kinase inhibitor library screening, A375 Parental, 1μΜ (A375 cells (parental); 1μΜ) | Cell viability in kinase inhibitor library screening, A375 GP, 1μΜ ([3]; 1μΜ) | Cell viability in kinase inhibitor library screening, A375 GP, 10μΜ ([3]; 10μΜ) | Cell viability in kinase inhibitor library screening, A375 XP, 10μΜ ([4]; 10μΜ) | Cell viability in kinase inhibitor library screening, IGR37 Parental, 1μΜ (IGR37 cells (parental)) | Cell viability in kinase inhibitor library screening, IGR37 Parental, 10μΜ (IGR37 cells (parental); 10μΜ) | Cell viability in kinase inhibitor library screening, IGR37 GP, 10μΜ ([5]; 10μΜ) | Cell viability in kinase inhibitor library screening, IGR37 GP, 1μΜ ([5]; 1μΜ, in %) | Cell viability in kinase inhibitor library screening, IGR37 XP, 10μΜ ([6]; 10μΜ) | Cell viability in kinase inhibitor library screening, IGR37 XP, 1μΜ ([6]; 1μΜ, in %) | Cell viability in kinase inhibitor library screening, 501Mel Parental, 1μΜ (501Mel cells (parental); 1μΜ) | Cell viability in kinase inhibitor library screening, A375 XP, 1μΜ ([4]; 1μΜ) | also measured
C=CC(=O)Nc1cccc(Sc2nc(Nc3ccc(N4CCN(C)CC4)cc3)ncc2Cl)c1 [WZ8040] | – | – | – | – | – | – | – | – | – | – | – | – | – | – | – | – | – | – | cell viability, 501Mel Parental, 1μΜ (501Mel cells (parental); 1μΜ): 98.5; cell viability, 501Mel Parental, 10μΜ (501Mel cells (parental); 10μΜ): -0.212; cell viability, 501Mel GP, 10μΜ ([1]; 10μΜ): 0.0662; cell viability, 501Mel XP, 1μΜ ([2]; 1μΜ): 96.4; cell viability, 501Mel XP, 10μΜ ([2]; 10μΜ): 0.0442; cell viability, A375 Parental, 1μΜ (A375 cells (parental); 1μΜ, in %): 97.5; cell viability, A375 Parental, 10μΜ (A375 cells (parental); 10μΜ, in %): 1.4; cell viability, A375 GP, 1μΜ ([3]; 1μΜ, in %): 98.2; cell viability, A375 GP, 10μΜ ([3]; 10μΜ, in %): 1.6; cell viability, A375 XP, 1μΜ ([4]; 1μΜ, in %): 104.2; cell viability, A375 XP, 10μΜ ([4]; 10μΜ, in %): 0.5; cell viability, IGR37 Parental, 10μΜ (IGR37 cells (parental); 10μΜ): 0.328; cell viability, IGR37 GP, 10μΜ ([5]; 10μΜ): 2.1%; cell viability, IGR37 GP, 1μΜ ([5]; 1μΜ, in %): 90.2; cell viability, IGR37 XP, 10μΜ ([6]; 10μΜ): 1.2%; cell viability, IGR37 XP, 1μΜ ([6]; 1μΜ, in %): 79.2
COC[C@H]1OC(=O)c2coc3c2[C@@]1(C)C1=C(C3=O)[C@@H]2CCC(=O)[C@@]2(C)C[C@H]1OC(C)=O [Wortmannin] | 57.2 | 95.9 | 51.6 | 91.1 | 23.3 | 77.1 | 109.1 | 103.2 | 72.0 | 67.6 | 99.5 | 76.3 | 22.9% | 97.7 | 26.8% | 96.4 | – | – | –
COc1ccc(Cl)c(Nc2nc3ccccc3nc2NS(=O)(=O)c2cccc(NC(=O)C(C)(C)N)c2)c1 [XL147] | 91.9 | – | 87.3 | 93.7 | 83.3 | 88.5 | 99.8 | 91.5 | 84.7 | 100.4 | – | 90.5 | 88.3% | 103.8 | 62.4% | 98.4 | 95.0 | 100.4 | –
CCn1c(=O)c(-c2cc[nH]n2)cc2c(C)nc(N)nc21 [XL765] | 98.4 | 109.6 | 92.1 | 96.7 | 77.0 | – | 105.9 | – | 92.4 | – | 100.4 | 106.2 | 96.8% | 95.1 | 68.4% | – | 93.5 | 106.1 | –
